Results on 3 molecules are retold here after US20190185507A1 (priority 2016, published 2019).

By IC50 is commonly meant the concentration that inhibits the measured activity by half. By Papp A→B is commonly meant how fast a substance crosses the layer from the apical side. A high value points to fast passage. A word on the efflux ratio: it is the permeability from basolateral to apical divided by that in the opposite direction, in the common usage.

Series [1] concerns HCV-Jc-1 tagged to a yellow fluorescent protein. The settings on record: after 48 h of infection; Liu et al., Antimicrob. Agents Chemother. 2015; cited from earlier work.
For series [2], the system named is HCV (Jc-1 Wild-type virus). Briefly: Efficacy testing of Sofosbuvir and n-Propyl-Sofosbuvir in HCV-infected Huh7.5 cells, quantitative PCR of HCV RNA in supernatant. The series is classed as cell-based, Hepatitis C virus. Conditions: for virus reduction / Ct-value (threshold cycle) of HCV-RNA: single application 48 h post infection; for virus reduction: two days treatment, inferred from Ct 28 vs 25; for Ct-value (threshold cycle) of HCV-RNA: μM range down to lowest dose, RNA extracted two days later, SYBR Green kit, untreated control Ct around 25 (FIG. 1); for antiviral profile (reduction of viral titer): single application, 72 h, concentrations down to 9 nM, Altona HCV quantification kit (FIG. 4); for amount of viral RNA (viral load) / reduction of viral RNA: two-time application, highest concentrations; for amount of viral RNA (viral load): CE-labeled PCR HCV quantification kit, controls around 10^7 IU/ml (FIG. 7); for reduction of viral RNA: versus controls. As to the method:
HCV histochemistry and determination of virus titers. To determine virus titers, the protocol described by Linden bach et al. (2005) is slightly modified. 1×10^4 Huh-7.5 cells or 0.7×10^4 Lunet cells were seeded per 96-well 24 h prior to infection. Six wells are infected simultaneously with the same dilution of filtered cell culture supernatants of HCV transfected or infected cells. Usually, the first dilution is a 1:10 dilution followed by 1:6 dilutions. 72 h after infection, the cells are washed once with PBS and then fixed in ice-cold methanol for 20 min at −20° C. Afterwards, the cells are washed with PBS and then permeabilized with 0.5% Triton X-100 in PBS for 5 min at RT. The first antibody detecting the HCV NSSA protein (9E10) is diluted 1:2000 in PBS and was incubated on the cells for 1 h. Then the cells are washed again three times with PBS and stained with the secondary antibody (goat a-mouse coupled to HRP, Sigma) 1:200 in PBS for 45 min at RT. To detect the HCV positive cells, the wells are first washed again three times with PBS and then the HRP activity is detected by the addition of 30 μl Carbazole substrate/96-well for 15 min at RT. Afterwards, the substrate is replaced with water and the wells were analyzed by light microscopy for positive cells. The 50% tissue culture infectious dose (TCID50) is calculated based on the methods described by Spearman and Karber. By this, the concentrations of a virus isolation needed to infect 50% of a given number of wells is determined (Spearman, 1908). qPCR of viral supernatant. Total RNA was extracted by the Altostar system according to the protocol of the manufacturer. A Power SYBR Green RNA-to-Ct 1-step kit (Applied Biosystems) is used to quantify the amount of HCV RNA. Primers specific for the 5′ UTR are 5′-TGCGGAACCGGTGAGTACA-3′ (forward) and […]. The PCR program conditions are as follows: 30 min at 48° C. for reverse transcription, 10 min at 95° C. for enzyme activation, and 40 cycles of amplification with 15 s at 95° C. for denaturation and 1 min at 60° C. for annealing and extension. Standard curve reactions are run in parallel by using serially diluted Jc1/Gluc2A plasmid ranging from 2.0×10^7 to 2.0×10^0 copies. To confirm obtained for experiment 3 (FIGS. 4 and 7), PCR was performed using the Atlona HCV-quantification kit.
Efficacy Testing of Sofosbuvir and n-Propyl-Sofosbuvir (compound I″a). Huh7.5 cells (1×10^4 per well) were seeded in a 96-well plate. The following day cells were infected with 8500 TCID50/well of HCV (Jc-1 Wild-type virus) for infection. After 48 h cells were treated with Sofosbuvir, n-Propyl-Sofosbuvir and as a negative control with the solvent used for Sofosbuvir, n-Propyl-Sofosbuvir (DMSO/EtOH) at concentrations given in the Figures. Two days or three later, supernatants were harvested and RNA was extracted by the Altostar system according to the protocol of the manufacturer. Quantitative PCR was performed using the Atlona HCV-quantification kit as recommended by the manufacturer.
In one set of experiments, Sofosbuvir and n-Propyl-Sofosbuvir were applied 48 h post infection and again 24 h later as indicated by FIG. 5.
All experiments shown represent the mean of at least two independent sets of data performed in duplicates.

The test system of a further series is Caco-2 cells. Briefly: Bi-directional Caco-2 cell permeability assay. Conditions: for permeability classification in the A>B direction: Caco-2; for efflux transporter substrate finding: efflux ratio larger than 2. The procedure:
(§1) The bi-directional Caco-2 cell permeability assay was performed as described as follows: Caco-2 cells (ECACC) were seeded onto 24-well Transwell plates at 2×10^5 cells per well and used in confluent monolayers after a 21 day culture at 37° C. under 5% CO2. Test and control compounds (propranolol, vinblastine), prepared in DMSO, were added (10 μM, 0.1% DMSO final, n=2) to donor compartments of the Transwell plate assembly in assay buffer (Hanks balanced salt solution supplemented with 25 mM HEPES, adjusted to pH 7.4) for both apical to basolateral (A>B) and basolateral to apical (B>A) measurements. Incubations were performed at 37° C., with samples removed from both donor and acceptor chambers at T=0 and 1 hour and compound analysed by mass spectrometry (LC-MS/MS) including an analytical internal standard.
(§2) Apparent permeability (Papp) values were determined from the relationship: Papp=[CompoundAcceptor T=end]×VAcceptor/([CompoundDonor T=0]×VDonor)/incubation time×VDonor/Area×60×10-6 cm/s
(§3) Where V is the volume of each Transwell compartment (apical 125 μL, basolateral 600 μL), and concentrations are the relative MS responses for compound (normalized to internal standard) in the donor chamber before incubation and acceptor chamber at the end of the incubation.
(§4) Area=area of cells exposed for drug transfer (0.33 cm2).
(§5) Efflux ratios (Papp B>A/Papp A>B) were calculated for each compound from the mean Papp values in each direction.
(§6) Lucifer Yellow (LY) was added to the apical buffer in all wells to assess viability of the cell layer.
(§7) Compound recovery from the wells was determined from MS responses (normalized to internal standard) in donor and acceptor chambers at the end of incubation compared to response in the donor chamber pre-incubation.
On the technique in general: Caco-2 monolayers are a common model of the intestinal barrier.

Series [3] in a line: Bi-directional Caco-2 cell permeability assay. Conditions: human, Caco-2, pH 7.4. As to the method:
as §1, §2, §3, §4, §5, §6, §7

Regarding `CC(C)OC(=O)[C@H](C)N[P@](=O)(OC[C@H]1O[C@@H](n2ccc(=O)[nH]c2=O)[C@](C)(F)[C@@H]1O)Oc1ccccc1` [Sofosbuvir, (S)-isopropyl 2-(((S)-(((2R,3R,4R,5R)-5-(2,4-dioxo-3,4-dihydropyrimidin-1(2H)-yl)-4-fluoro-3-hydroxy-4-methyltetrahydrofuran-2-yl)methoxy)(phenoxy)phosphoryl)-amino)propanoate], in series [1], the concentration for half-maximal inhibition (IC50) is more than 10 µM. Besides, in series [2], the virus reduction result is “about 1 log”, the “Ct-value (threshold cycle) of HCV-RNA” value is reported as “around 28”, the “antiviral profile (reduction of viral titer)” value is listed as “comparable antiviral profile” and the “amount of viral RNA (viral load)” value was 6.5×10^5 IU/ml. In addition, the “reduction of viral RNA” value in series [2] is “about 95%”. In the series with Caco-2 cells, the “permeability classification in the A>B direction” value was “low permeable” and the “efflux transporter substrate finding” value is recorded as “substrates of efflux transporters”. In addition, in series [3], the apical-to-basolateral permeability (Papp A→B) at 1 h, 10 μM was 4 ×10⁻⁶ cm/s and the efflux ratio at 1 h, 10 μM was 4.6.

Regarding `CCCOC(=O)[C@H](C)N[P@](=O)(OC[C@H]1O[C@@H](n2ccc(=O)[nH]c2=O)[C@](C)(F)[C@@H]1O)Oc1ccccc1` [n-Propyl-Sofosbuvir, (S)-n-propyl 2-(((S)-(((2R,3R,4R,5R)-5-(2,4-dioxo-3,4-dihydropyrimidin-1(2H)-yl)-4-fluoro-3-hydroxy-4-methyltetrahydrofuran-2-yl)methoxy)(phenoxy)phosphoryl)-amino)propanoate], in series [2], the virus reduction entry was “about 1 log”, the “Ct-value (threshold cycle) of HCV-RNA” value is recorded as “around 28”, the “antiviral profile (reduction of viral titer)” value is on record as “comparable antiviral profile” and the “amount of viral RNA (viral load)” value was 6.5×10^5 IU/ml. Moreover, the “reduction of viral RNA” value in series [2] is recorded as “about 95%”. Further, in the series with Caco-2 cells, the “permeability classification in the A>B direction” value is recorded as “low permeable” and the “efflux transporter substrate finding” value is listed as “substrates of efflux transporters”. Moreover, in series [3], the Papp A→B at 1 h, 10 μM was found to be 2 ×10⁻⁶ cm/s and the efflux ratio at 1 h, 10 μM is 4.4.

The molecule `CC[C@]1(O)C[C@@H]2CN(CCc3c([nH]c4ccccc34)[C@@](C(=O)OC)(c3cc4c(cc3OC)N(C)[C@H]3[C@@](O)(C(=O)OC)[C@H](OC(C)=O)[C@]5(CC)C=CCN6CC[C@]43[C@@H]65)C2)C1` [vinblastine] gave an apical-to-basolateral permeability (Papp A→B) at 1 h, 10 μM in series [3] of 5 ×10⁻⁶ cm/s.
